{"source": "patent US20240336611A1", "about": "(Insilico Medicine IP Limited, priority 2021, published 2024)", "key": {"[1]": {"biological_target": "T1, TNIK kinase [amino acid sequence (1-367), Invitrogen] (Homo sapiens, UniProt Q9UKE5)", "T1 construct": "purchased Invitrogen", "T1 sequence (Q9UKE5 1-367)": "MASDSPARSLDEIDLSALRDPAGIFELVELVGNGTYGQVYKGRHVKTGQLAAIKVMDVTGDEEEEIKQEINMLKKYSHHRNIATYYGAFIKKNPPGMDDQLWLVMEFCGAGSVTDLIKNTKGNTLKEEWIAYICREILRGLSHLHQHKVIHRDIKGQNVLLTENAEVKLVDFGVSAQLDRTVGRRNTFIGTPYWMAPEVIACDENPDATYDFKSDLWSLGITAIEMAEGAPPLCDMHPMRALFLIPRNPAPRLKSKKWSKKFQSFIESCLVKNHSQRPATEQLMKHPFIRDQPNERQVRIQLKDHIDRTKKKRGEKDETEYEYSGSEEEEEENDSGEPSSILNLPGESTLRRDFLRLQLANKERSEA", "test": "TNIK kinase inhibition assay (Z-lyte FRET-peptide)", "type": "biochemical", "conditions": "0.625 nM TNIK kinase, 2 μM Ser/Thr 7 peptide, 64 μM ATP, one hour at room temperature"}, "[2]": {"test": "Metabolic stability in human liver microsomes", "type": "in vitro ADME", "conditions": "LM Clint (intrinsic clearance); 1 μM test compound, 0.5 mg protein/mL microsome, 37° C., up to 60 min", "protocol": "2.1. Test Compound and Control Working Solution Preparation: Working solution: 5 µL of compound and control stock solution (10 mM in dimethyl sulfoxide (DMSO)) were diluted with 495 μL of acetonitrile (ACN) (intermediate solution concentration: 100 μM, 99% ACN).\n2.2.1. […] 2.2.2. Preparation Procedure: The appropriate amount of NADPH powder were weighed and diluted into a 10 mM MgCl2 solution (working solution concentration: 10 unit/mL; final concentration in reaction system: 1 unit/mL).\n2.3.2. Preparation Procedure: The appropriate concentrations of microsome working solutions were prepared in 100 mM potassium phosphate buffer. 2.4. Stop Solution Preparation: Cold (4° C.) acetonitrile (ACN) containing 200 ng/mL tolbutamide and 200 ng/mL labetalol as internal standards (IS) were used as the stop solution.\n2.5.1. Pre-warm empty ‘Incubation’ plates T60 and NCF60 for 10 min minutes. 2.5.2. Liver microsomes were diluted to 0.56 mg/mL in 100 mM phosphate buffer. 2.5.3. 445 uL microsome working solutions (0.56 mg/mL) were transferred into pre-warmed ‘Incubation’ plates T60 and NCF60. Then ‘Incubation’ plates T60 and NCF60 were pre-incubated for 10 min at 37° C. with constant shaking. 54 μL liver microsomes were transferred to blank plate, then 6 μL NAPDH cofactor were added to the blank plate, and then 180 μL quenching solution can be added to blank plate. 2.5.4 5 μL compound working solution (100 μM) were added into ‘incubation’ plates (T60 and NCF60) containing microsomes and mix 3 times thoroughly. 2.5.5. For the NCF60 plate, 50 uL of buffer were added and were mixed 3 times thoroughly. Start timing; plate was incubated at 37° C. for 60 min while shaking. 2.5.6. In ‘Quenching’ plate TO, 180 μL quenching solution were added and 6 μL NAPDH cofactor were added. Ensured the plate was chilled to prevent evaporation. 2.5.7. For the T60 plate, were mixed 3 times thoroughly, and immediately removed 54 μL mixture for the 0-min time point to ‘Quenching’ plate. Then 44 μL NAPDH cofactor were added to incubation plate (T60). Start timing; plate were incubated at 37° C. for 60 min while shaking.\n2.5.8. At 5, 10, 20, 30, and 60 min, 180 μL quenching solution were added to ‘Quenching’ plates, mix once, and were serially transferred 60 μL sample from T60 plate per time point to ‘Quenching’ plates.\n2.5.9. For NCF60: were mixed once, and 60 μL sample were transferred from the NCF60 incubation to ‘Quenching’ plate containing quenching solution at the 60-min time point.\n2.5.10. All sampling plates were shaken for 10 min, then centrifuged at 4000 rpm for 20 minutes at 4° C. 2.5.11. 80 μL supernatant were transferred into 240 μL HPLC water, and were mixed by plate shaker for 10 min. 2.5.12. Each bioanalysis plate were sealed and shaken for 10 minutes prior to LC-MS/MS analysis.\n3.1. The equation of first order kinetics were used to calculate T1/2 and Intrinsic clearance (CLint mic) in (μL/min/mg).\nEquation of first order kinetic."}}, "data": [{"smiles": "CC(C)n1cnc(-c2ccc(F)cc2)c1-c1nc(C(=O)Nc2ccc(N3CCN(C)CC3)nc2)cs1", "note": "[Compound 8, 2-(4-(4-fluorophenyl)-1-isopropyl-1H-imidazol-5-yl)-N-(6-(4-methylpiperazin-1-yl)pyridin-3-yl)thiazole-4-carboxamide]", "values": [{"measurement": "IC50", "setting": "[1]", "result": "1 to 12", "unit": "nM"}, {"measurement": "Human Liver Microsome (μM/min/mg)", "setting": "[2]", "result": "+ (>100 μM/min/mg as +)"}]}, {"smiles": "CN1CCN(c2ccc(NC(=O)c3csc(-c4c(-c5ccc(F)cc5)ncn4C4CC4)n3)nc2)CC1", "note": "[Compound 42, 2-(1-cyclopropyl-4-(4-fluorophenyl)-1H-imidazol-5-yl)-N-(5-(4-methylpiperazin-1-yl)pyridin-2-yl)thiazole-4-carboxamide]", "values": [{"measurement": "IC50", "setting": "[1]", "result": "1 to 12", "unit": "nM"}, {"measurement": "Human Liver Microsome (μM/min/mg)", "setting": "[2]", "result": "++ (10-100 μM/min/mg as ++)"}]}, {"smiles": "CN1CCN(c2ccc(NC(=O)c3c[nH]c(-c4c(-c5ccc(F)cc5)ncn4C4CCC4)n3)cc2)CC1", "note": "[Compound 26, 3′-cyclobutyl-5′-(4-fluorophenyl)-N-(4-(4-methylpiperazin-1-yl)phenyl)-1H,3′H-[2,4′-biimidazole]-4-carboxamide]", "values": [{"measurement": "IC50", "setting": "[1]", "result": "12 to 150", "unit": "nM"}, {"measurement": "Human Liver Microsome (μM/min/mg)", "setting": "[2]", "result": "++ (10-100 μM/min/mg as ++)"}]}, {"smiles": "CC(C)n1cnc(-c2ccc(F)cc2)c1-c1nc(C(=O)Nc2ccc(C3CCN(C)CC3)cn2)cs1", "note": "[Compound 9, 2-(4-(4-fluorophenyl)-1-isopropyl-1H-imidazol-5-yl)-N-(5-(1-methylpiperidin-4-yl)pyridin-2-yl)thiazole-4-carboxamide]", "values": [{"measurement": "IC50", "setting": "[1]", "result": "1 to 12", "unit": "nM"}, {"measurement": "Human Liver Microsome (μM/min/mg)", "setting": "[2]", "result": "++ (10-100 μM/min/mg as ++)"}]}, {"smiles": "CC(C)n1cnc(-c2ccc(F)cc2)c1-c1nc(C(=O)Nc2ccc(N3CCP(C)(=O)CC3)cc2F)cs1", "note": "[Compound 117, N-(2-fluoro-4-(4-methyl-4-oxido-1,4-azaphosphinan-1-yl)phenyl)-2-(4-(4-fluorophenyl)-1-isopropyl-1H-imidazol-5-yl)thiazole-4-carboxamide]", "values": [{"measurement": "IC50", "setting": "[1]", "result": "1 to 12", "unit": "nM"}, {"measurement": "Human Liver Microsome (μM/min/mg)", "setting": "[2]", "result": "++ (10-100 μM/min/mg as ++)"}]}, {"smiles": "O=C(Nc1ccc(C2COC2)cc1F)c1coc(-c2c(-c3ccc(F)cc3)ncn2C2CC(F)(F)C2)n1", "note": "[Compound 81, 2-(1-(3,3-difluorocyclobutyl)-4-(4-fluorophenyl)-1H-imidazol-5-yl)-N-(2-fluoro-4-(oxetan-3-yl)phenyl)oxazole-4-carboxamide]", "values": [{"measurement": "IC50", "setting": "[1]", "result": "12 to 150", "unit": "nM"}, {"measurement": "Human Liver Microsome (μM/min/mg)", "setting": "[2]", "result": "+ (>100 μM/min/mg as +)"}]}, {"smiles": "O=C(Nc1ccc(N2CCOCC2)cn1)c1csc(-c2c(-c3ccc(F)cc3)ncn2C2CC(F)(F)C2)n1", "note": "[Compound 65, 2-(1-(3,3-difluorocyclobutyl)-4-(4-fluorophenyl)-1H-imidazol-5-yl)-N-(5-morpholinopyridin-2-yl)thiazole-4-carboxamide]", "values": [{"measurement": "IC50", "setting": "[1]", "result": "1 to 12", "unit": "nM"}, {"measurement": "Human Liver Microsome (μM/min/mg)", "setting": "[2]", "result": "++ (10-100 μM/min/mg as ++)"}]}, {"smiles": "CC(C)n1cnc(-c2ccc(F)cc2)c1-c1nc(C(=O)Nc2ccc3c(n2)CN(C)CC3)cs1", "note": "[Compound 43, 2-(4-(4-fluorophenyl)-1-isopropyl-1H-imidazol-5-yl)-N-(7-methyl-5,6,7,8-tetrahydro-1,7-naphthyridin-2-yl)thiazole-4-carboxamide]", "values": [{"measurement": "IC50", "setting": "[1]", "result": "1 to 12", "unit": "nM"}, {"measurement": "Human Liver Microsome (μM/min/mg)", "setting": "[2]", "result": "+ (>100 μM/min/mg as +)"}]}, {"smiles": "CC(C)n1cnc(-c2ccc(F)cc2)c1-c1nc(C(=O)Nc2ccc(C3COC3)cc2F)cs1", "note": "[Compound 59]", "values": [{"measurement": "IC50", "setting": "[1]", "result": "1 to 12", "unit": "nM"}, {"measurement": "Human Liver Microsome (μM/min/mg)", "setting": "[2]", "result": "+ (>100 μM/min/mg as +)"}]}, {"smiles": "CC(C)c1noc(-c2ccc(F)cc2)c1-c1nc(C(=O)Nc2ccc(N3CC4CC(C3)N4C)cc2F)cs1", "note": "[Compound 97, N-(2-fluoro-4-(6-methyl-3,6-diazabicyclo[3.1.1]heptan-3-yl)phenyl)-2-(5-(4-fluorophenyl)-3-isopropylisoxazol-4-yl)thiazole-4-carboxamide]", "values": [{"measurement": "IC50", "setting": "[1]", "result": "1 to 12", "unit": "nM"}, {"measurement": "Human Liver Microsome (μM/min/mg)", "setting": "[2]", "result": "++ (10-100 μM/min/mg as ++)"}]}, {"smiles": "CC(C)n1cnc(-c2ccc(F)cc2)c1-c1nc(C(=O)Nc2ccc(C3COC3)cn2)c[nH]1", "note": "[Compound 54, 5′-(4-fluorophenyl)-3′-isopropyl-N-(5-(oxetan-3-yl)pyridin-2-yl)-1H,3′H-[2,4′-biimidazole]-4-carboxamide]", "values": [{"measurement": "IC50", "setting": "[1]", "result": "1 to 12", "unit": "nM"}, {"measurement": "Human Liver Microsome (μM/min/mg)", "setting": "[2]", "result": "++ (10-100 μM/min/mg as ++)"}]}, {"smiles": "CC(C)n1cnc(-c2ccc(F)cc2)c1-c1csc(C(=O)Nc2ccc(N3CCN(C)CC3)cc2F)n1", "note": "[Compound 12, N-(2-fluoro-4-(4-methylpiperazin-1-yl)phenyl)-4-(4-(4-fluorophenyl)-1-isopropyl-1H-imidazol-5-yl)thiazole-2-carboxamide]", "values": [{"measurement": "IC50", "setting": "[1]", "result": "1 to 12", "unit": "nM"}, {"measurement": "Human Liver Microsome (μM/min/mg)", "setting": "[2]", "result": "++ (10-100 μM/min/mg as ++)"}]}, {"smiles": "[2H]C([2H])([2H])N1CCN(c2ccc(NC(=O)c3c[nH]c(-c4c(-c5ccc(F)cc5)ncn4C([2H])(C)C)n3)c(F)c2)CC1", "note": "[Compound 127, 2-[3-(1-deuterio-1-methyl-ethyl)-5-(4-fluorophenyl)imidazol-4-yl]-N-[2-fluoro-4-[4-(trideuteriomethyl)piperazin-1-yl]phenyl]-1H-imidazole-4-carboxamide]", "values": [{"measurement": "IC50", "setting": "[1]", "result": "1 to 12", "unit": "nM"}, {"measurement": "Human Liver Microsome (μM/min/mg)", "setting": "[2]", "result": "++ (10-100 μM/min/mg as ++)"}]}, {"smiles": "O=C(Nc1ccc(N2CCC2)cn1)c1csc(-c2c(-c3ccc(F)cc3)ncn2C2CC(F)(F)C2)n1", "note": "[Compound 68, N-(5-(azetidin-1-yl)pyridin-2-yl)-2-(1-(3,3-difluorocyclobutyl)-4-(4-fluorophenyl)-1H-imidazol-5-yl)thiazole-4-carboxamide]", "values": [{"measurement": "IC50", "setting": "[1]", "result": "1 to 12", "unit": "nM"}, {"measurement": "Human Liver Microsome (μM/min/mg)", "setting": "[2]", "result": "++ (10-100 μM/min/mg as ++)"}]}, {"smiles": "[2H]C([2H])([2H])N1CC(c2ccc(NC(=O)c3csc(-c4c(-c5ccc(F)cc5)ncn4C(C)C)n3)nc2)C1", "note": "[Compound 108, 2-[5-(4-fluorophenyl)-3-isopropyl-imidazol-4-yl]-N-[5-[1-(trideuteriomethyl)azetidin-3-yl]-2-pyridyl]thiazole-4-carboxamide]", "values": [{"measurement": "IC50", "setting": "[1]", "result": "1 to 12", "unit": "nM"}, {"measurement": "Human Liver Microsome (μM/min/mg)", "setting": "[2]", "result": "++ (10-100 μM/min/mg as ++)"}]}, {"smiles": "CC(C)c1onc(-c2ccc(F)cc2)c1-c1nc(C(=O)Nc2ccc(C3CN(C)C3)cc2F)cs1", "note": "[Compound 88, N-(2-fluoro-4-(1-methylazetidin-3-yl)phenyl)-2-(3-(4-fluorophenyl)-5-isopropylisoxazol-4-yl)thiazole-4-carboxamide]", "values": [{"measurement": "IC50", "setting": "[1]", "result": "1 to 12", "unit": "nM"}, {"measurement": "Human Liver Microsome (μM/min/mg)", "setting": "[2]", "result": "++ (10-100 μM/min/mg as ++)"}]}, {"smiles": "[2H]C([2H])([2H])N1CC(c2ccc(NC(=O)c3nc(-c4c(-c5ccc(F)cc5)ncn4C(C)C)cs3)nc2)C1", "note": "[Compound 130, 4-[5-(4-fluorophenyl)-3-isopropyl-imidazol-4-yl]-N-[5-[1-(trideuteriomethyl)azetidin-3-yl]-2-pyridyl]thiazole-2-carboxamide]", "values": [{"measurement": "Human Liver Microsome (μM/min/mg)", "setting": "[2]", "result": "++ (10-100 μM/min/mg as ++)"}]}, {"smiles": "O=C(Nc1ccc(N2CCOCC2)cn1)c1c[nH]c(-c2c(-c3ccc(F)cc3)ncn2C2COC2)n1", "note": "[Compound 72, 5′-(4-fluorophenyl)-N-(5-morpholinopyridin-2-yl)-3′-(oxetan-3-yl)-1H,3′H-[2,4′-biimidazole]-4-carboxamide]", "values": [{"measurement": "Human Liver Microsome (μM/min/mg)", "setting": "[2]", "result": "++ (10-100 μM/min/mg as ++)"}]}, {"smiles": "[2H]C([2H])([2H])N1CC(c2ccc(NC(=O)c3nc(-c4c(-c5ccc(F)cc5)ncn4C(C)C)cs3)c(F)c2)C1", "note": "[Compound 131, 4-[5-(4-fluorophenyl)-3-isopropyl-imidazol-4-yl]-N-[2-fluoro-4-[1-(trideuteriomethyl)azetidin-3-yl]phenyl]thiazole-2-carboxamide]", "values": [{"measurement": "Human Liver Microsome (μM/min/mg)", "setting": "[2]", "result": "++ (10-100 μM/min/mg as ++)"}]}]}
